Experiments:
Type in all cases: functional, organism-based, Hepacivirus hominis
Hepatitis C virus [1] = test: Antiviral activity against HCV genotype 1b by real time PCR analysis
Hepatitis C virus [2] = test: Antiviral activity against HCV genotype 1a by real time PCR analysis; conditions: subtype 1a
Hepatitis C virus [3] = test: Antiviral activity against HCV genotype 2a by real time PCR analysis
Hepatitis C virus [4] = test: Antiviral activity against HCV genotype 1a harboring NS5A Y93H mutant by real time PCR analysis; conditions: subtype 1a
Hepatitis C virus [5] = test: Antiviral activity against HCV genotype 3a by real time PCR analysis
Hepatitis C virus [6] = test: Antiviral activity against HCV genotype 1b in presence of 10% FBS by real time PCR analysis
Hepatitis C virus [7] = test: Antiviral activity against HCV genotype 1a in presence of 10% FBS by real time PCR analysis; conditions: subtype 1a

SMILES | EC50 (Hepatitis C virus [1]) [nM] | EC50 (Hepatitis C virus [2]) [nM] | EC50 (Hepatitis C virus [3]) [nM] | EC50 (Hepatitis C virus [4]) [nM] | EC50 (Hepatitis C virus [5]) [nM] | EC50 (Hepatitis C virus [6]) [nM] | EC50 (Hepatitis C virus [7]) [nM]
COC(=O)N[C@H](C(=O)N1C[C@H](OC)C[C@H]1c1ncc(-c2ccc(-c3ccc4c(ccc5nc([C@@H]6[C@H]7CC[C@H](C7)N6C(=O)[C@@H](NC(=O)OC)C(C)C)[nH]c54)c3)cc2)[nH]1)C(C)C | 0.007 | 0.05 | 0.02 | 43 | – | – | –
COC(=O)N[C@H](C(=O)N1CCC[C@H]1c1ncc(-c2ccc(-c3ccc4c(ccc5nc([C@@H]6CCCN6C(=O)[C@@H](NC(=O)OC)C(C)C)[nH]c54)c3)cc2O)[nH]1)C(C)C | 0.004 | 0.08 | 0.2 | 201 | – | – | –
COC(=O)N[C@H](C(=O)N1CCC[C@H]1c1ncc(-c2ccc(-c3ccc4c(ccc5nc([C@@H]6CCCN6C(=O)[C@@H](NC(=O)OC)C(C)C)[nH]c54)c3)cc2C)[nH]1)C(C)C | 0.002 | 0.02 | 0.09 | – | – | – | –
COC(=O)N[C@H](C(=O)N1CCC[C@H]1c1nc2ccc3cc(-c4ccc(-c5c[nH]c([C@@H]6C[C@@H]7CN6C(=O)[C@H](C(C)C)NC(=O)OCCC/C=C/CO7)n5)cc4)ccc3c2[nH]1)C(C)C | 0.006 | 0.01 | – | 43 | 0.04 | – | –
COC(=O)N[C@H](C(=O)N1C[C@H](N)C[C@H]1c1ncc(-c2ccc(-c3ccc4c(ccc5nc([C@@H]6CCCN6C(=O)[C@@H](NC(=O)OC)C(C)C)[nH]c54)c3)cc2)[nH]1)C(C)C | 0.03 | 0.4 | 2 | 987 | – | – | –
COC(=O)N[C@H](C(=O)N1CCC[C@H]1c1ncc(-c2ccc(-c3ccc4c(c3)c(Cl)cc3nc([C@@H]5CCCN5C(=O)[C@@H](NC(=O)OC)C(C)C)[nH]c34)cc2)[nH]1)C(C)C | 0.003 | 0.01 | 0.004 | 121 | – | – | –
COC(=O)N[C@H](C(=O)N1CCC[C@H]1c1ncc(-c2ccc(-c3ccc4c(ccc5nc([C@@H]6CCCN6C(=O)[C@@H](NC(=O)OC)C(C)C)[nH]c54)c3)cc2C2CC2)[nH]1)C(C)C | 0.002 | 0.1 | 0.2 | – | – | – | –
COC(=O)N[C@H](C(=O)N1CCC[C@H]1c1ncc(-c2ccc(-c3ccc4c(ccc5nc([C@@H]6[C@H]7CC[C@H](C7)N6C(=O)[C@@H](NC(=O)OC)C(C)C)[nH]c54)c3)cc2)[nH]1)C(C)C | 0.005 | 0.02 | 0.02 | 93 | – | – | –
COC(=O)N[C@H](C(=O)N1CCC[C@H]1c1nc2ccc3cc(-c4ccc5c(c4)OCCCCCCOC(=O)N[C@@H](C(C)C)C(=O)N4CCC[C@H]4c4ncc-5[nH]4)ccc3c2[nH]1)C(C)C | 2 | 1 | – | 857 | – | – | –
COC(=O)N[C@H](C(=O)N1C[C@H](NC(C)=O)C[C@H]1c1ncc(-c2ccc(-c3ccc4c(ccc5nc([C@@H]6CCCN6C(=O)[C@@H](NC(=O)OC)C(C)C)[nH]c54)c3)cc2)[nH]1)C(C)C | 0.01 | 0.07 | 0.1 | 225 | – | – | –
COCCO[C@@H]1C[C@@H](c2ncc(-c3ccc(-c4ccc5c(ccc6nc([C@@H]7[C@H]8CC[C@H](C8)N7C(=O)[C@@H](NC(=O)OC)C(C)C)[nH]c65)c4)cc3)[nH]2)N(C(=O)[C@@H](NC(=O)OC)C(C)C)C1 | 0.01 | > 1 | 0.1 | 404 | – | – | –
CC(C)[C@H](NC(=O)OC1(C)CC1)C(=O)N1CCC[C@H]1c1ncc(-c2ccc(-c3ccc4c(c3)c(Cl)cc3nc([C@@H]5CCCN5C(=O)[C@@H](NC(=O)OC5(C)CC5)C(C)C)[nH]c34)cc2)[nH]1 | 4 | > 1 | – | – | – | – | –
COC(=O)N[C@H](C(=O)N1CCC[C@H]1c1ncc(-c2ccc3oc(-c4ccc(-c5c[nH]c([C@@H]6C[C@@H]7CN6C(=O)[C@H](C(C)C)NC(=O)OC/C=C/CCCO7)n5)cc4)cc3c2)[nH]1)C(C)C | 0.04 | 0.4 | – | 45 | 2 | – | –
COC(=O)N[C@@H]1C[C@@H](c2ncc(-c3ccc(-c4ccc5c(ccc6nc([C@@H]7CCCN7C(=O)[C@@H](NC(=O)OC)C(C)C)[nH]c65)c4)cc3)[nH]2)N(C(=O)[C@@H](NC(=O)OC)C(C)C)C1 | 0.009 | 0.2 | 0.05 | 80 | – | – | –
COC(=O)N[C@H](C(=O)N1CCC[C@H]1c1ncc(-c2ccc3oc(-c4ccc(-c5c[nH]c([C@@H]6C[C@@H]7CN6C(=O)[C@H](C(C)C)NC(=O)OCCCCCCO7)n5)cc4)cc3c2)[nH]1)C(C)C | – | – | – | – | – | 0.2 | 1.4
COC(=O)N[C@H](C(=O)N1C[C@H](O)C[C@H]1c1ncc(-c2ccc(-c3ccc4c(ccc5nc([C@@H]6[C@H]7CC[C@H](C7)N6C(=O)[C@@H](NC(=O)OC)C(C)C)[nH]c54)c3)cc2)[nH]1)C(C)C | 0.007 | 0.2 | 0.4 | 21 | – | – | –
COC(=O)N[C@H](C(=O)N1CCC[C@H]1c1nc2ccc3cc(-c4ccc(-c5c[nH]c([C@@H]6C[C@@H]7CN6C(=O)[C@H](C(C)C)NC(=O)OCCCCCCO7)n5)cc4)ccc3c2[nH]1)C(C)C | 0.01 | 0.006 | – | 188 | 0.5 | – | –
COC(=O)N[C@H](C(=O)N1CCC[C@H]1c1nc2ccc3cc(-c4ccc(-c5cnc([C@@H]6CC[C@H]7C(=O)N[C@@H](C(C)C)C(=O)N76)[nH]5)cc4)ccc3c2[nH]1)C(C)C | 0.007 | 0.3 | – | 460 | 12 | – | –
CC(C)OC(=O)N[C@H](C(=O)N1CCC[C@H]1c1ncc(-c2ccc(-c3ccc4c(c3)c(Cl)cc3nc([C@@H]5CCCN5C(=O)[C@@H](NC(=O)OC(C)C)C(C)C)[nH]c34)cc2)[nH]1)C(C)C | 35 | > 1 | – | – | – | – | –
COC(=O)N[C@H](C(=O)N1CCC[C@H]1c1ncc(-c2ccc(-c3ccc4c(ccc5nc([C@@H]6CCCN6C(=O)[C@@H](NC(=O)OC)C(C)C)[nH]c54)c3)cc2OCCN2CCOCC2)[nH]1)C(C)C | 2 | > 1 | > 10 | 1340 | – | – | –
COCCOC(=O)N[C@H](C(=O)N1CCC[C@H]1c1ncc(-c2ccc(-c3ccc4c(c3)c(Cl)cc3nc([C@@H]5CCCN5C(=O)[C@@H](NC(=O)OCCOC)C(C)C)[nH]c34)cc2)[nH]1)C(C)C | 15 | > 1 | > 1 | > 1000 | – | – | –
